# According to patent publication US20230114728A1 (Venatorx Pharmaceuticals, Inc., priority 2019, published 2023):
# Experiments:
# Test in all cases: Broth microdilution MIC in CAMHB
# Format in all cases: cell-based
# A. baumannii ATCC 19606 = settings: Acinetobacter baumannii, ATCC19606; MHB; read-out: Minimum Inhibitory Concentration, A. baumannii ATCC 19606
# In short: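 CLSI broth microdilution in CAMHB: 2-fold compound dilutions inoculated at 2-8×10^5 CFU/mL from 3-5 h log-phase cultures. Incubated at 37 °C for 16-20 h (Enterobacteriaceae, Pseudomonas); MIC read visually as lowest concentration without growth. Strains include hyper-permeable and efflux-deficient mutants.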
# E. coli 901C = settings: Escherichia coli; E. coli 901C (hyper-permeable); MHB; read-out: Minimum Inhibitory Concentration, E. coli 901C
# In short: (§1)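 CLSI microdilution; CAMHB; inoculum 2-8×10^5 CFU/mL from 3-5 h 37° C culture; 2-fold compound series; 16-20 h, 37° C; MIC = lowest well without visible growth.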
# E. coli AG100A = settings: Escherichia coli, read-out: Minimum Inhibitory Concentration, E. coli AG100A
# In short: as §1
# E. coli AG100 = settings: Escherichia coli; E. coli AG100 (wild-type parent); MHB; read-out: Minimum Inhibitory Concentration, E. coli AG100
# In short: as §1
# E. coli ATCC 25922 = settings: Escherichia coli, ATCC25922; E. coli ATCC 25922; MHB; read-out: Minimum Inhibitory Concentration, E. coli 25922
# In short: as §1
# E. coli D22 = settings: Escherichia coli; E. coli D22 (hyper-permeable); MHB; read-out: Minimum Inhibitory Concentration, E. coli D22
# In short: as §1
# [1] = test system: K. pneumoniae 848844 producing SHV-11 and KPC-2; settings: Klebsiella pneumoniae, read-out: Minimum Inhibitory Concentration, K. pneumoniae 848844
# In short: as §1
# [2] = test system: K. pneumoniae SI-117 producing VIM-1; settings: Klebsiella pneumoniae, read-out: Minimum Inhibitory Concentration, K. pneumoniae SI-117
# In short: as §1
# [3] = test system: K. pneumoniae UMM producing SHV-5 and KPC-2; settings: Klebsiella pneumoniae, read-out: Minimum Inhibitory Concentration, K. pneumoniae UMM
# In short: as §1
# [4] = test system: P. aeruginosa (ΔmexAB-oprM); settings: Pseudomonas aeruginosa, read-out: Minimum Inhibitory Concentration, P. aeruginosa ΔmexAB-OprM
# In short: as §1
# P. aeruginosa ATCC 27853 = settings: Pseudomonas aeruginosa, ATCC27853; MHB; read-out: Minimum Inhibitory Concentration, P. aeruginosa ATCC 27853
# In short: as §1
# P. aeruginosa ATCC 35151 = settings: Pseudomonas aeruginosa, ATCC35151; MHB; hyper-permeable strain; read-out: Minimum Inhibitory Concentration, P. aeruginosa ATCC 35151
# In short: as §1
SMILES,MIC (A. baumannii ATCC 19606),MIC (E. coli 901C),MIC (E. coli AG100A),MIC (E. coli AG100),MIC (E. coli ATCC 25922),MIC (E. coli D22),MIC [1],MIC [2],MIC [3],MIC [4],MIC (P. aeruginosa ATCC 27853),MIC (P. aeruginosa ATCC 35151)
"CCN1CCN(C(=O)NC(C(=O)N[C@H]2Cc3cccc(C(=O)O)c3OB2O)c2cccc(NS(C)(=O)=O)c2)C(=O)C1=O (stereo partly drawn) [Example 76, (3R)-3-(2-(4-ethyl-2,3-dioxopiperazine-1-carboxamido)-2-(3-(methylsulfonamido)phenyl)acetamido)-2-hydroxy-3,4-dihydro-2H-benzo[e][1,2]oxaborinine-8-carboxylic acid]",> 128 µg/mL,< 0.25 µg/mL,2 to 4 µg/mL,8 to 16 µg/mL,32 to 64 µg/mL,2 to 4 µg/mL,> 128 µg/mL,> 128 µg/mL,32 to 64 µg/mL,8 to 16 µg/mL,> 128 µg/mL,2 to 4 µg/mL
"CCN1CCN(C(=O)NC(C(=O)N[C@H]2Cc3cccc(C(=O)O)c3OB2O)c2cc(O)ccc2O)C(=O)C1=O (stereo partly drawn) [Example 77, (3R)-3-(2-(2,5-dihydroxyphenyl)-2-(4-ethyl-2,3-dioxopiperazine-1-carboxamido)acetamido)-2-hydroxy-3,4-dihydro-2H-benzo[e][1,2]oxaborinine-8-carboxylic acid]",> 128 µg/mL,8 to 16 µg/mL,32 to 64 µg/mL,> 128 µg/mL,> 128 µg/mL,8 to 16 µg/mL,> 128 µg/mL,> 128 µg/mL,> 128 µg/mL,> 128 µg/mL,> 128 µg/mL,8 to 16 µg/mL
"N=C(N)NCCN1CCN(C(=O)NC(C(=O)N[C@H]2Cc3ccc(F)c(C(=O)O)c3OB2O)c2ccc(C(=O)O)c(F)c2)C(=O)C1=O (stereo partly drawn) [Example 78, (3R)-3-(2-(4-carboxy-3-fluorophenyl)-2-(4-(2-guanidinoethyl)-2,3-dioxopiperazine-1-carboxamido)acetamido)-7-fluoro-2-hydroxy-3,4-dihydro-2H-benzo[e][1,2]oxaborinine-8-carboxylic acid]",> 128 µg/mL,2 to 4 µg/mL,> 128 µg/mL,> 128 µg/mL,> 128 µg/mL,8 to 16 µg/mL,> 128 µg/mL,> 128 µg/mL,> 128 µg/mL,32 to 64 µg/mL,32 to 64 µg/mL,0.5 to 1 µg/mL
"NCCN1CCN(C(=O)NC(C(=O)N[C@H]2Cc3cccc(C(=O)O)c3OB2O)c2cc(Cl)c(O)cc2F)C(=O)C1=O (stereo partly drawn) [Example 87, (3R)-3-(2-(4-(2-aminoethyl)-2,3-dioxopiperazine-1-carboxamido)-2-(5-chloro-2-fluoro-4-hydroxyphenyl)acetamido)-2-hydroxy-3,4-dihydro-2H-benzo[e][1,2]oxaborinine-8-carboxylic acid]",> 128 µg/mL,< 0.25 µg/mL,0.5 to 1 µg/mL,8 to 16 µg/mL,8 to 16 µg/mL,2 to 4 µg/mL,32 to 64 µg/mL,32 to 64 µg/mL,8 to 16 µg/mL,8 to 16 µg/mL,> 128 µg/mL,0.5 to 1 µg/mL
"NCCN1CCN(C(=O)N[C@@H](C(=O)N[C@H]2Cc3cccc(C(=O)O)c3OB2O)c2cc(Cl)c(O)cc2Cl)C(=O)C1=O [Example 90, (R)-3-((R)-2-(4-(2-aminoethyl)-2,3-dioxopiperazine-1-carboxamido)-2-(2,5-dichloro-4-hydroxyphenyl)acetamido)-2-hydroxy-3,4-dihydro-2H-benzo[e][1,2]oxaborinine-8-carboxylic acid]",> 128 µg/mL,0.5 to 1 µg/mL,32 to 64 µg/mL,32 to 64 µg/mL,> 128 µg/mL,8 to 16 µg/mL,> 128 µg/mL,> 128 µg/mL,> 128 µg/mL,> 128 µg/mL,> 128 µg/mL,0.5 to 1 µg/mL
"NCCN1CCN(C(=O)NC(C(=O)N[C@H]2Cc3cccc(C(=O)O)c3OB2O)c2cc(F)c(O)cc2F)C(=O)C1=O (stereo partly drawn) [Example 93, (3R)-3-(2-(4-(2-aminoethyl)-2,3-dioxopiperazine-1-carboxamido)-2-(2,5-difluoro-4-hydroxyphenyl)acetamido)-2-hydroxy-3,4-dihydro-2H-benzo[e][1,2]oxaborinine-8-carboxylic acid]",> 128 µg/mL,0.5 to 1 µg/mL,2 to 4 µg/mL,8 to 16 µg/mL,8 to 16 µg/mL,2 to 4 µg/mL,32 to 64 µg/mL,32 to 64 µg/mL,8 to 16 µg/mL,32 to 64 µg/mL,> 128 µg/mL,0.5 to 1 µg/mL
"NCCN1CCN(C(=O)NC(C(=O)N[C@H]2Cc3cccc(C(=O)O)c3OB2O)c2c(F)cc(O)cc2Cl)C(=O)C1=O (stereo partly drawn) [Example 94, (3R)-3-(2-(4-(2-aminoethyl)-2,3-dioxopiperazine-1-carboxamido)-2-(2-chloro-6-fluoro-4-hydroxyphenyl)acetamido)-2-hydroxy-3,4-dihydro-2H-benzo[e][1,2]oxaborinine-8-carboxylic acid]",> 128 µg/mL,0.5 to 1 µg/mL,2 to 4 µg/mL,32 to 64 µg/mL,32 to 64 µg/mL,8 to 16 µg/mL,32 to 64 µg/mL,32 to 64 µg/mL,32 to 64 µg/mL,32 to 64 µg/mL,> 128 µg/mL,2 to 4 µg/mL
"CCN1CCN(C(=O)NC(C(=O)N[C@H]2Cc3cccc(C(=O)O)c3OB2O)c2c(F)cc(O)cc2Cl)C(=O)C1=O (stereo partly drawn) [Example 95, (3R)-3-(2-(2-chloro-6-fluoro-4-hydroxyphenyl)-2-(4-ethyl-2,3-dioxopiperazine-1-carboxamido)acetamido)-2-hydroxy-3,4-dihydro-2H-benzo[e][1,2]oxaborinine-8-carboxylic acid]",> 128 µg/mL,< 0.25 µg/mL,0.5 to 1 µg/mL,8 to 16 µg/mL,8 to 16 µg/mL,0.5 to 1 µg/mL,32 to 64 µg/mL,32 to 64 µg/mL,8 to 16 µg/mL,32 to 64 µg/mL,> 128 µg/mL,2 to 4 µg/mL
"CCN1CCN(C(=O)NC(C(=O)N[C@H]2Cc3cccc(C(=O)O)c3OB2O)c2cccc(NC(=O)c3cncnc3)c2)C(=O)C1=O (stereo partly drawn) [Example 96, (3R)-3-(2-(4-ethyl-2,3-dioxopiperazine-1-carboxamido)-2-(3-(pyrimidine-5-carboxamido)phenyl)acetamido)-2-hydroxy-3,4-dihydro-2H-benzo[e][1,2]oxaborinine-8-carboxylic acid]",> 128 µg/mL,0.5 to 1 µg/mL,8 to 16 µg/mL,> 128 µg/mL,> 128 µg/mL,8 to 16 µg/mL,> 128 µg/mL,> 128 µg/mL,> 128 µg/mL,32 to 64 µg/mL,> 128 µg/mL,2 to 4 µg/mL
